This note sets out measurements from ChEMBL document CHEMBL1201862, “PubChem BioAssay data set” (2004).

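Values below derive from 48-hour exposures of cells grown in 96-well plates, with endpoints linearly interpolated between the two concentrations bracketing the appropriate inhibition level. At the GI50, growth is halved.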 Active and inactive are the calls of the source. No stated cut-off is given here; in the data, active = GI50 up to about 1.1 µM and inactive = higher. Some results are limits rather than exact numbers.

Test systems include OVCAR-8; KM12; MDA-MB-231; IGROV-1; Hs-578T; HT-29; SF-268; MCF7; SK-OV-3; HCT-15; DU-145; HL-60; OVCAR-3; NCI-H23; MDA-MB-435; K562; A498; ACHN; OVCAR-4; BT-549.
Holding throughout (assay): NCI tumour cell line growth inhibition, 48 h

Take `Cc1c(-c2nc(N)c(C#N)c(N)c2C#N)c(=O)oc2ccccc12`: the GI50 with OVCAR-8 was > 100 µM (inactive); in the experiment on KM12, 68.4 µM (inactive); with MDA-MB-231, > 100 µM (inactive); in the experiment with IGROV-1 it was 9.46 µM (inactive); in the experiment on Hs-578T it was > 100 µM (inactive); in the experiment with HT-29, 83 µM (inactive). Also, the GI50 is > 100 µM (inactive) in the experiment on SF-268; 73.6 µM (inactive) in the experiment with MCF7; > 100 µM (inactive) in the experiment with SK-OV-3; 80.7 µM with HCT-15; > 100 µM (inactive) in the experiment with DU-145; 63.5 µM (inactive) with HL-60. For the same molecule, the GI50 in the experiment with OVCAR-3 was > 100 µM (inactive); in the experiment on NCI-H23 it was 87.9 µM (inactive); in the experiment on MDA-MB-435, > 10 µM (inactive); with K562 it was 59.4 µM (inactive); in the experiment with A498 it was > 100 µM (inactive); in the experiment on ACHN, > 100 µM (inactive). Further, the GI50 in the experiment with OVCAR-4 and with BT-549 was > 100 µM (inactive) throughout.

With `CC[C@@]1(O)C(=O)OCc2c1cc1n(c2=O)Cc2c-1nc1ccccc1c2Cl`, the GI50 in the experiment with OVCAR-8 was 0.0146 µM (active); with KM12, 0.124 µM (active); in the experiment with MDA-MB-231, 8.32 µM (inactive); in the experiment with IGROV-1, 0.211 µM (active); in the experiment on Hs-578T, 4.52 µM (inactive); in the experiment on HT-29 it was 0.0461 µM (active). The GI50 is < 0.01 µM (active) with SF-268; < 0.01 µM (active) with MCF7; 0.0217 µM (active) in the experiment with SK-OV-3; 0.267 µM in the experiment with HCT-15; < 0.01 µM (active) in the experiment with DU-145; < 0.01 µM (active) with HL-60. Besides, the GI50 with OVCAR-3 is 0.296 µM (active); with NCI-H23 it was < 0.01 µM (active); with MDA-MB-435, 0.0984 µM (active); with K562, 0.0329 µM (active); in the experiment with A498, 0.0237 µM (active); in the experiment on ACHN it was < 0.01 µM (active). Besides, the GI50 in the experiment with OVCAR-4 is 0.56 µM (active); with BT-549, < 0.0136 µM (active).

As to `O=C(NC1=C(Cl)C(=O)c2ccccc2C1=O)C(=O)c1c(O)c2ccccc2oc1=O`, the GI50 was 3.44 µM (inactive) in the experiment on OVCAR-8; 4.55 µM (inactive) with KM12; 3.48 µM (inactive) in the experiment with MDA-MB-231; 3.27 µM (inactive) in the experiment with IGROV-1; 5.2 µM (inactive) with Hs-578T; 3.07 µM (inactive) with HT-29. The GI50 in the experiment on SF-268 was 5.62 µM (inactive); with MCF7 it was 1.62 µM (inactive); in the experiment on SK-OV-3, 12.6 µM (inactive); in the experiment with HCT-15, 3.18 µM; in the experiment on DU-145, 1.49 µM (inactive); in the experiment on HL-60 it was 3.21 µM (inactive). Moreover, the GI50 was 1.16 µM (inactive) with OVCAR-3; 1.53 µM (inactive) in the experiment with NCI-H23; 1.39 µM (inactive) in the experiment with MDA-MB-435; 5.15 µM (inactive) with K562; 14.7 µM (inactive) in the experiment with A498; 3.4 µM (inactive) in the experiment on ACHN. Besides, the GI50 with OVCAR-4 is 7.4 µM (inactive); in the experiment on BT-549, 3.06 µM (inactive).

For the molecule `C=CCN1C(=O)/C(=C/c2ccc(C)cc2)N=C1SC/C=C/C`, the GI50 with OVCAR-8 is 30.1 µM (inactive); in the experiment with KM12, 27.8 µM (inactive); in the experiment with MDA-MB-231, 51.5 µM (inactive); in the experiment on IGROV-1, 51.6 µM (inactive); in the experiment with Hs-578T it was 21.8 µM (inactive); in the experiment with HT-29 it was 29.1 µM (inactive). Also, the GI50 is 33.2 µM (inactive) in the experiment on SF-268; 29.4 µM (inactive) with MCF7; > 100 µM (inactive) in the experiment on SK-OV-3; 33.4 µM in the experiment with HCT-15; 55.3 µM (inactive) in the experiment with DU-145; 15.8 µM (inactive) in the experiment with HL-60. Further, the GI50 in the experiment on OVCAR-3 was 40.8 µM (inactive); in the experiment on NCI-H23, 31.1 µM (inactive); in the experiment on MDA-MB-435, 34.4 µM (inactive); in the experiment on K562, 25.9 µM (inactive); in the experiment on A498, 24.3 µM (inactive); with ACHN, 40.2 µM (inactive). In addition, the GI50 in the experiment with OVCAR-4 is 41.9 µM (inactive); with BT-549 it was 30.4 µM (inactive).

For `c1ccc(C/C(=N\Nc2nc3ccccc3o2)c2ccccn2)cc1`, the GI50 with OVCAR-8 is 0.0321 µM (active); in the experiment with KM12, 0.264 µM (active); in the experiment on MDA-MB-231 it was 0.126 µM (active); in the experiment on IGROV-1, 0.0643 µM (active); in the experiment on Hs-578T it was 0.569 µM (active); in the experiment with HT-29, < 0.01 µM (active). Further, the GI50 was 0.0805 µM (active) in the experiment with SF-268; < 0.01 µM (active) in the experiment on MCF7; 0.0237 µM (active) in the experiment with SK-OV-3; 0.0252 µM in the experiment with HCT-15; 0.376 µM (active) with DU-145; 0.0698 µM (active) in the experiment with HL-60. Also, the GI50 was 0.0137 µM (active) in the experiment on OVCAR-3; 0.0382 µM (active) in the experiment with NCI-H23; 0.638 µM (active) in the experiment on MDA-MB-435; 0.027 µM (active) in the experiment on K562; 0.369 µM (active) in the experiment with A498; 0.0202 µM (active) in the experiment on ACHN. Also, the GI50 in the experiment with OVCAR-4 was < 0.01 µM (active); in the experiment with BT-549, 0.342 µM (active).

In the case of `CN(C)c1ccc(C=C2C(=O)NC(=S)NC2=O)c2ccccc12`, the GI50 with OVCAR-8 was 27 µM (inactive); with KM12 it was > 100 µM (inactive); with MDA-MB-231, > 100 µM (inactive); in the experiment on IGROV-1, 36.1 µM (inactive); with Hs-578T, 26.5 µM (inactive); in the experiment with HT-29, > 100 µM (inactive). Further, the GI50 in the experiment with SF-268 was 29 µM (inactive); in the experiment on MCF7, 67.6 µM (inactive); in the experiment on SK-OV-3 it was > 100 µM (inactive); in the experiment with HCT-15 it was 41.7 µM; with DU-145 it was > 100 µM (inactive); in the experiment with HL-60, 33.7 µM (inactive). The GI50 is 50.9 µM (inactive) with OVCAR-3; 71.9 µM (inactive) with NCI-H23; 38.9 µM (inactive) in the experiment with MDA-MB-435; 40.9 µM (inactive) with K562; 53.7 µM (inactive) in the experiment with A498; > 100 µM (inactive) in the experiment with ACHN. Besides, the GI50 is > 100 µM (inactive) in the experiment on OVCAR-4 and 61 µM (inactive) in the experiment with BT-549.

`Cc1nc(N)nc(N)c1N1CCN(Cc2ccccc2)CC1`: the GI50 with OVCAR-8 is 14.9 µM (inactive); in the experiment with KM12, 27 µM (inactive); in the experiment with MDA-MB-231, > 86.3 µM (inactive); in the experiment on IGROV-1 it was 19.9 µM (inactive); with Hs-578T, 48 µM (inactive); with HT-29, 11.8 µM (inactive). In addition, the GI50 is 16.1 µM (inactive) in the experiment on SF-268; 27.1 µM (inactive) with MCF7; > 55.1 µM (inactive) in the experiment with SK-OV-3; 9.42 µM in the experiment on HCT-15; 37.2 µM (inactive) with DU-145; 25.1 µM (inactive) in the experiment with HL-60. For the same molecule, the GI50 with OVCAR-3 is 47.8 µM (inactive); in the experiment on NCI-H23, 17.1 µM (inactive); in the experiment with MDA-MB-435 it was 11.4 µM (inactive); in the experiment on K562 it was 6.44 µM (inactive); with A498, 42.5 µM (inactive); in the experiment on ACHN, 12.6 µM (inactive). In addition, the figures for the GI50 with OVCAR-4 and in the experiment with BT-549 were > 100 µM (inactive) and > 93.3 µM (inactive), respectively.

For `O=[N+]([O-])/C=C/c1cc2ccc3ccccc3c2[nH]1`, the GI50 in the experiment on OVCAR-8 is 2.28 µM (inactive); in the experiment on KM12, 1.83 µM (inactive); in the experiment with MDA-MB-231 it was 1.43 µM (inactive); in the experiment on IGROV-1 it was 0.527 µM (active); with Hs-578T, 3.56 µM (inactive); in the experiment with HT-29, 2.19 µM (inactive). The GI50 in the experiment with SF-268 was 1.77 µM (inactive); in the experiment with MCF7 it was 1.44 µM (inactive); in the experiment with SK-OV-3 it was 4.07 µM (inactive); in the experiment on HCT-15 it was 1.72 µM; in the experiment with DU-145, 1.9 µM (inactive); with HL-60, 2.12 µM (inactive). In addition, the GI50 was 1.55 µM (inactive) with OVCAR-3; 2.02 µM (inactive) in the experiment with NCI-H23; 1.69 µM (inactive) in the experiment on MDA-MB-435; 1.8 µM (inactive) with K562; 1.23 µM (inactive) in the experiment on A498; 1.54 µM (inactive) with ACHN. Further, the results for the GI50 with OVCAR-4 and in the experiment on BT-549 were 1.98 µM (inactive) and 1.89 µM (inactive), respectively.

Consider `COC(=O)/C=C(\S/C(=C(/c1ccccc1)n1cc(C(=O)OC)c(C(=O)OC)n1)c1ccccc1)C(=O)OC`, for which the GI50 in the experiment on OVCAR-8 is 2 µM (inactive); in the experiment with KM12, 54.6 µM (inactive); in the experiment with MDA-MB-231, 22 µM (inactive); in the experiment on IGROV-1 it was 17.7 µM (inactive); with Hs-578T it was 33.3 µM (inactive); with HT-29 it was 3.33 µM (inactive). The GI50 with SF-268 was 16.1 µM (inactive); in the experiment with MCF7, 5.26 µM (inactive); in the experiment on SK-OV-3 it was > 100 µM (inactive); in the experiment on HCT-15, 11.6 µM; in the experiment with DU-145 it was 14.7 µM (inactive); in the experiment on HL-60 it was 3.26 µM (inactive). Besides, the GI50 was 3.27 µM (inactive) with OVCAR-3; 18.1 µM (inactive) in the experiment on NCI-H23; 15.8 µM (inactive) in the experiment on MDA-MB-435; 3.54 µM (inactive) in the experiment with K562; > 100 µM (inactive) in the experiment with A498; 3.29 µM (inactive) in the experiment with ACHN. The GI50 in the experiment with OVCAR-4 is 13 µM (inactive); in the experiment with BT-549, 38.5 µM (inactive).

With `CN(NC(=O)CCCl)C1=NCCN1`, the GI50 in the experiment with OVCAR-8, in the experiment on KM12, in the experiment with MDA-MB-231, in the experiment on IGROV-1, with Hs-578T and in the experiment on HT-29 was > 100 µM (inactive) throughout. Also, the GI50 in the experiment with SF-268 was > 100 µM (inactive); in the experiment with MCF7, > 100 µM (inactive); in the experiment on SK-OV-3, > 100 µM (inactive); with HCT-15 it was more than 100 µM; with DU-145 it was > 100 µM (inactive); in the experiment with HL-60, > 100 µM (inactive). In addition, the GI50 with OVCAR-3, with NCI-H23, with MDA-MB-435, in the experiment with K562, in the experiment with A498 and in the experiment with ACHN was > 100 µM (inactive) in each case. Further, the GI50 in the experiment on OVCAR-4 and with BT-549 was > 100 µM (inactive) each time.
